The record followed here is patent US20230391783A1, “COMPOUND CONTAINING 2,4-THIAZOLE RING, PREPARATION METHOD THEREFOR, AND APPLICATION THEREOF” (SHANDONG UNIVERSITY, priority 2021, published 2023).

Broadly, the IC50 is the midpoint of a concentration-inhibition curve. Lower therefore signals higher potency. A word on the AUC(0-t): it is exposure summed from dosing to a finite time, without extrapolation to infinity. A lower AUC(0-t) goes with low exposure. The term MRT denotes a mean duration of stay, worked out from the concentration-time curve. Broadly, the half-life is how long it takes for the measured level to halve. A low value points to fast loss. One may read the bioavailability as the share of a dose that reaches the circulation, judged against a reference dose that is usually intravenous. Usually AUC(0-inf) stands for total exposure, with the tail of the curve extrapolated. A lower AUC(0-inf) goes with low exposure.

The subject of data set [1] is CD-3 antibody-induced inflammatory factors IL-6, IL-2, TNF-a and IFN-y in serum. Description: Inhibition of CD-3 antibody-induced cytokine storm in mice. It is filed as in vivo. Conditions: 10 mg/kg via tail vein, two injections, CD-3 antibody 100 μg/kg i.p., ELISA (FIG. 5). The method, then: (§1) A total of 15 healthy male mice were randomly and equally divided into 3 groups, namely, control group, model group and drug administration group, with 5 mice in each group, labeled and their body weight recorded. Respectively administered: the control group and the model group were injected with normal saline via tail vein respectively, and the administration group was injected with the compounds prepared in Examples 1-4 via tail vein respectively; the dose was 10 mg/kg (2 mg/mL; 50 μL/10 g). CD-3 antibody was injected intraperitoneally, 100 μg/kg, after 0.5 hours. A second injection of the drug was given 5 hours later. Blood was collected from the mice 9 hours later, followed by euthanasia.
(§2) ELISA was performed to determine levels of IL-6, IL-2, TNF-a and IFN-y in serum.
In general terms: In an ELISA, binding on a coated surface is turned into a signal by an enzyme label.

For data set [2], the system named is LPS-induced inflammatory factors IL-6, IL-2, TNF-a and IFN-y in serum. Briefly: Inhibition of LPS-induced cytokine storm in mice. It is filed as in vivo. The method, then: as §1, with “the” for “the compounds”, “One hour later, LPS” for “CD-3 antibody”, “intraperitoneally at 3 mg/kg (0.3 mg/mL,” for “intraperitoneally,”, “μL/10 g).” for “μg/kg, after 0.5 hours.”
as §2
Histopathological examination was performed on the administration group of compound IA-3: mouse lungs were fixed with 4% paraformaldehyde, and histopathological changes were observed by HE.

Data set [3] has as its system lymphocytes (fresh spleen cells). Description: Lymphocyte proliferation assay (ConA-induced spleen cells). Format: cell-based, rat. The method, then: (§3) Lymphocytotoxicity test: rats were euthanized by spinal dislocation method, their spleens were aseptically removed and ground to make a single cell suspension. After removing red blood cells with 2 mL of red blood cell lysis buffer, the cell concentration was adjusted to 2×10^6 cells/mL using RPMI-1640 medium containing 10% fetal bovine serum (FBS). Next, 100 μL of the 2×10^6 cells/mL cell suspension and 100 μL of the appropriate concentration of the tested compound were added to each well of a 96-well plate, and the plate was incubated at 37° C. with 5% CO2 for 48 hours. At the end of the incubation period, 10 μL of CCK8 was added to each well, and the plate was returned to the incubator for 5-7 hours. The OD450 value was then measured at 450 nm using an enzyme-linked immunosorbent assay reader.
Lymphocyte proliferation assay: fresh spleen cells at a concentration of 2×10^6 cells/mL were incubated for 48 hours in an incubator maintained at 37° C. and 5% CO2 for 48 hours, and the culture medium was induced for cell proliferation with 5 μg/mL of ConA, and the appropriate concentration of the tested compound was added to test its inhibitory activity on lymphocyte proliferation. The test results of some compounds are shown in the table below and figures accompanying the application: […]

A short description of data set [4]: Pharmacokinetics and oral bioavailability in Wistar rats. To be noted: rat. Format: in vivo. The method, then:
To prepare the standard series solution, a suitable amount of compound IA-3 was accurately weighed and placed in a 100 mL volumetric flask. The compound was dissolved in acetonitrile and diluted to the mark to produce a 25.0 μg/mL stock solution. The solution was mixed thoroughly by shaking and used for further analysis. An appropriate amount of the stock solution was taken separately, diluted with acetonitrile, and made up to the mark to prepare a series of standard solutions with concentrations of 5, 10, 25, 50, 100, 250, 500, and 1000 ng/mL. The solutions were stored in a refrigerator at 4° C. for later use.
Preparation of internal standard solution: a suitable amount of internal standard was accurately weighed and placed in a 100 mL volumetric flask. The internal standard was dissolved in acetonitrile and diluted to the mark to produce a 25 μg/mL stock solution. The solution was mixed thoroughly by shaking and used for further analysis. An accurately weighed amount of the stock solution was taken again and diluted with acetonitrile to prepare the internal standard reference solution at a concentration of 50 ng/mL. The solution was stored in a refrigerator at 4° C. for later use.
Preparation of plasma samples: 80 μL of rat plasma was taken, and 120 μL of internal standard was added. The mixture was vortexed for 2 min and centrifuged for 10 min. Then, 140 μL of the supernatant was collected and centrifuged for another 10 min. Finally, 10 μL of the supernatant was injected for analysis.
Standard Curve: 64 μL of blank rat plasma was mixed with 16 μL of the test compound standard series solution and 120 μL of acetonitrile solution containing the internal standard. The mixture was vortexed for 2 minutes and centrifuged for 10 minutes. Then, 140 μL of the supernatant was taken and centrifuged for another 10 minutes, 10 μL of the sample was injected and analyzed with HPLC-HR-MS. Instrumentation obtained the linear regression equation as the standard curve.
Sampling: eight healthy male Wistar rats were randomly divided into two groups (oral group and intravenous group), with four rats in each group. Rats were fasted for 12 h and provided with free access to water before the experiment. The oral group was administered with the test drug at a dose of 5 mg/kg, and the intravenous group was administered with 1 mg/kg. Blood samples of approximately 0.4 mL were collected from the rat orbital vein before and at 5 min, 15 min, 30 min, 1 h, 1.5 h, 2 h, 4 h, 6 h, 8 h, 10 h, and 12 h after administration, and immediately transferred to heparinized centrifuge tubes. Plasma was separated by centrifugation.
Sample determination and data processing: the rat plasma samples were processed according to the “Preparation of plasma samples” procedure and analyzed under the conditions described above. The non-compartmental model was applied to process the drug concentration data mentioned above, and the pharmacokinetic parameters were calculated using the DAD 2.0 software. The bioavailability was calculated according to the formula F=AUCig*Div/AUCiv*Dig*100%.

A further data set has as its system lymphocytes. Description: Lymphocytotoxicity test (CCK8, no stimulation factor). It is filed as cell-based, rat. As to the method: as §3
In addition, the toxicity of the compounds on lymphocytes was also tested in this example. The testing method was as follows: the cell density was 3×10^6 cells/mL, and 100 μL of the cell suspension containing 3×10^5 cells/well was added to each well of a 96-well plate without any stimulation factor.

Setting [5] is: male, Wistar, plasma, iv, single injection 1 mg/kg.
Where [6] appears, read: male, Wistar, plasma, single oral administration 5 mg/kg.
Setting [7] is: single oral administration 5 mg/kg.

As to `O=C(NCc1cccnc1)c1csc(-c2cnn3cccnc23)n1` [IA-3], the “reduction of CD-3 antibody-induced IL-6, IL-2, TNF-a and IFN-y levels in serum” value in data set [1] is “most significant effect on the reduction of the above factors”. In data set [2] (10 mg/kg via tail vein, two injections, LPS 3 mg/kg i.p., ELISA (FIG. 3)), the “reduction of LPS-induced IL-6, IL-2, TNF-a and IFN-y levels in serum” value is listed as “most significant effect on the reduction of the above factors”. Further, in data set [2] (LPS model, 10 mg/kg via tail vein (FIG. 4)), the “lung histopathology (H&E)” value was “reduced the severity of lung pathology”. Besides, in data set [3] (Rattus norvegicus, inhibition of lymphocyte proliferation, 5 μg/mL ConA, 48 hours), the IC50 came to 0.0132 ± 0.00205 µM. In addition, in data set [3] (lymphocyte proliferation induced with 5 μg/mL ConA, 48 hours, test concentration not given), the “Inhibition rate (%)” value worked out at 97.09%. For the same molecule, the “inhibitory effect on lymphocyte proliferation (in words)” value in data set [3] (rat lymphocytes) is recorded as “particularly significant inhibitory effect on lymphocytes”. In addition, in data set [4] (setting [5]), the area under the curve AUC(0-t) stood at 0.717 µg·h/mL, the mean residence time (MRT) came out at 30.4 min, the clearance came to 2.71 L/h/kg and the half-life is 21.6 min. For the same molecule, the Vd in data set [4] (male, Wistar, plasma, iv, single injection 1 mg/kg, read-out: Vss) was 1.08 L/kg. For the same molecule, the bioavailability in data set [4] (male, Wistar, plasma, oral, intragastric 5 mg/kg vs intravenous 1 mg/kg, read-out: relative oral bioavailability) was determined as 22.1%. For the same molecule, in data set [4] (setting [6]), the AUC(0-inf) came to 0.408 µg·h/mL, the AUC(0-t) amounted to 0.408 µg·h/mL, the mean residence time (MRT) turned out to be 76.2 min and the half-life was 125 min. Besides, in data set [4] (setting [7]), the CL is 23 L/h/kg and the Vss came to 69.5 L/kg. The “safety index (in words)” value in the data set with lymphocytes was “high safety index”. In the data set with lymphocytes (5, 2.5, 1.25 and 0.625 μM, no stimulation factor (FIG. 2)), the “toxicity on lymphocytes (in words)” value is recorded as “less cytotoxicity”.
